Experimental data: ChEMBL document CHEMBL4828725 (Eur J Med Chem, 2021); call rule not given here

Key:
[1] = Inhibition of bovine liver beta-glucosidase using p-nitrophenyl glycoside as substrate assessed as release of p-nitrophenol measured by spectrometric assay; parameters: species or system Bos taurus
Penicillium decumbens = assay: Inhibition of Penicillium decumbens alpha-L-rhamnosidase using p-nitrophenyl glycoside as substrate assessed as release of p-nitrophenol at 1000 uM measured by spectrometric assay relative to control
[2] = target: Alpha-galactosidase (Coffea arabica) (UniProt Q42656); assay: Inhibition of coffee beans alpha-galactosidase using p-nitrophenyl glycoside as substrate assessed as release of p-nitrophenol at 1000 uM measured by spectrometric assay relative to control
Chain of Alpha-galactosidase (Coffea arabica) (Q42656 16-378 limits assumed): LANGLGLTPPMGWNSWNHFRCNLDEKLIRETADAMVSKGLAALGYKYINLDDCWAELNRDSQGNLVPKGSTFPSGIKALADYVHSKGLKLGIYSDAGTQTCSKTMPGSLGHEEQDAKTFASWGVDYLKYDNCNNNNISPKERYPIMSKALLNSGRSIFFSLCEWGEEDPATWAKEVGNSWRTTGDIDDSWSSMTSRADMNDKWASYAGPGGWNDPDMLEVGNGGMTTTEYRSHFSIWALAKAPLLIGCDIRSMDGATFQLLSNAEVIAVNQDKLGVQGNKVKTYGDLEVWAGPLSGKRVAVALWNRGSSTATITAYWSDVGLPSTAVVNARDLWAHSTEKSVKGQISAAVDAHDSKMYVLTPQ

Bos taurus [3] = organism: Bos taurus; assay: Inhibition of bovine liver beta-galactosidase using p-nitrophenyl glycoside as substrate assessed as release of p-nitrophenol at 1000 uM measured by spectrometric assay relative to control
[4] = Inhibition of bovine liver beta-galactosidase using p-nitrophenyl glycoside as substrate assessed as release of p-nitrophenol measured by spectrometric assay; assay type: tissue-based, Bos taurus
[5] = target: T1, Tissue alpha-L-fucosidase (Bos taurus, UniProt Q2KIM0); assay: Inhibition of bovine kidney alpha-L-fucosidase using p-nitrophenyl glycoside as substrate assessed as release of p-nitrophenol measured by spectrometric assay
T1 sequence (Q2KIM0 whole entry): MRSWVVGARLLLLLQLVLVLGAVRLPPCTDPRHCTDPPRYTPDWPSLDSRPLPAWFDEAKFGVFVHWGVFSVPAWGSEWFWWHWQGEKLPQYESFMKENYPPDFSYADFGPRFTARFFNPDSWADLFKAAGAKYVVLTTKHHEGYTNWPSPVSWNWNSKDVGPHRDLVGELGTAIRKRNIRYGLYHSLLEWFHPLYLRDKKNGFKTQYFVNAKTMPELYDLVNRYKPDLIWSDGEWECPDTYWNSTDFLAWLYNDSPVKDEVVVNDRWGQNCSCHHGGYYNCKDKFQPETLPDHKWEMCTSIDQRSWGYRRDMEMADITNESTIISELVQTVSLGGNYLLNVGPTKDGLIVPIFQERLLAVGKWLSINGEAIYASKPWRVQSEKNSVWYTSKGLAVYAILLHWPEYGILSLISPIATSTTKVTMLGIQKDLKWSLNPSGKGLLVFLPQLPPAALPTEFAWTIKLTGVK

[6] = Inhibition of jack bean alpha-mannosidase using p-nitrophenyl glycoside as substrate assessed as release of p-nitrophenol measured by spectrometric assay; parameters: species or system Canavalia ensiformis
[7] = Inhibition of almond beta-glucosidase using p-nitrophenyl glycoside as substrate assessed as release of p-nitrophenol measured by spectrometric assay; parameters: species or system Prunus dulcis
[8] = Inhibition of snail beta-mannosidase using p-nitrophenyl glycoside as substrate assessed as release of p-nitrophenol measured by spectrometric assay; parameters: species or system Helix pomatia
Aspergillus niger = assay: Inhibition of Aspergillus niger amyloglucosidase using p-nitrophenyl glycoside as substrate assessed as release of p-nitrophenol at 1000 uM measured by spectrometric assay relative to control
[9] = Inhibition of porcine kidney alpha-trehalase using p-nitrophenyl glycoside as substrate assessed as release of p-nitrophenol measured by spectrometric assay; parameters: species or system Sus scrofa
Beta-glucuronidase = Beta-glucuronidase (Escherichia coli (strain K12), UniProt P05804); assay: Inhibition of Escherichia coli beta-glucuronidase using p-nitrophenyl glycoside as substrate assessed as release of p-nitrophenol measured by spectrometric assay
Chain of Beta-glucuronidase (P05804 whole entry): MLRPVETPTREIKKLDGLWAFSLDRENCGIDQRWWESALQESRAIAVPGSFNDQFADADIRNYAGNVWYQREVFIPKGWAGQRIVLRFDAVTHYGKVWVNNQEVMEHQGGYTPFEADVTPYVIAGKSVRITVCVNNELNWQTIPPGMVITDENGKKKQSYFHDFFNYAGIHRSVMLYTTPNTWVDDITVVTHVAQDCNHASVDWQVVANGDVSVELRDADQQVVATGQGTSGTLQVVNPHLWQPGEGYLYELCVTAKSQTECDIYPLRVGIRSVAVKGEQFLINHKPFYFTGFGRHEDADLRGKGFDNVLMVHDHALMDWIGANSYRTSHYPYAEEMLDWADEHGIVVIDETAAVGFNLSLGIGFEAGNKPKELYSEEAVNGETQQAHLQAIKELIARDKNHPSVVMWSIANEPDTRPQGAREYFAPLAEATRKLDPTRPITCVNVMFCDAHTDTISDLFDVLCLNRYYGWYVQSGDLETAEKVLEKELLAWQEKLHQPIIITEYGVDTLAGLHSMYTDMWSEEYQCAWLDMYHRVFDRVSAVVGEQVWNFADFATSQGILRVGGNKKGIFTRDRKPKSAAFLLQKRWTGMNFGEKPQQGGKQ

Prunus dulcis = assay: Inhibition of almond beta-glucosidase using p-nitrophenyl glycoside as substrate assessed as release of p-nitrophenol at 1000 uM measured by spectrometric assay relative to control
[10] = Inhibition of Penicillium decumbens alpha-L-rhamnosidase using p-nitrophenyl glycoside as substrate assessed as release of p-nitrophenol measured by spectrometric assay
Alpha-galactosidase = Alpha-galactosidase (Coffea arabica, UniProt Q42656); assay: Inhibition of coffee beans alpha-galactosidase using p-nitrophenyl glycoside as substrate assessed as release of p-nitrophenol measured by spectrometric assay
Chain of Alpha-galactosidase (Q42656 whole entry): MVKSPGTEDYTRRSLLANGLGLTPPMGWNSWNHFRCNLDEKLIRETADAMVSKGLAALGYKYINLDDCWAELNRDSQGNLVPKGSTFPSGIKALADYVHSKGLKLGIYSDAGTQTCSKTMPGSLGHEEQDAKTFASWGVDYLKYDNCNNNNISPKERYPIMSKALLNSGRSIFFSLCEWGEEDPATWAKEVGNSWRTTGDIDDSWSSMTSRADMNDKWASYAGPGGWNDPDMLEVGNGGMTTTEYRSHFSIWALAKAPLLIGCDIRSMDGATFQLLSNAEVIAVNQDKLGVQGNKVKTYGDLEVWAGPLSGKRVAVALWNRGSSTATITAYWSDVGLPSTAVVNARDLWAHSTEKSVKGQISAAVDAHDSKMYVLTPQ

[11] = Inhibition of Aspergillus niger amyloglucosidase using p-nitrophenyl glycoside as substrate assessed as release of p-nitrophenol measured by spectrometric assay
Helix pomatia = assay: Inhibition of snail beta-mannosidase using p-nitrophenyl glycoside as substrate assessed as release of p-nitrophenol at 1000 uM measured by spectrometric assay relative to control
[12] = target: T2, Sucrase-isomaltase, intestinal (Rattus norvegicus, UniProt P23739); assay: Inhibition of rat intestinal isomaltase using p-nitrophenyl glycoside as substrate assessed as release of p-nitrophenol measured by spectrometric assay
T2 sequence (P23739 1-1013 limits assumed): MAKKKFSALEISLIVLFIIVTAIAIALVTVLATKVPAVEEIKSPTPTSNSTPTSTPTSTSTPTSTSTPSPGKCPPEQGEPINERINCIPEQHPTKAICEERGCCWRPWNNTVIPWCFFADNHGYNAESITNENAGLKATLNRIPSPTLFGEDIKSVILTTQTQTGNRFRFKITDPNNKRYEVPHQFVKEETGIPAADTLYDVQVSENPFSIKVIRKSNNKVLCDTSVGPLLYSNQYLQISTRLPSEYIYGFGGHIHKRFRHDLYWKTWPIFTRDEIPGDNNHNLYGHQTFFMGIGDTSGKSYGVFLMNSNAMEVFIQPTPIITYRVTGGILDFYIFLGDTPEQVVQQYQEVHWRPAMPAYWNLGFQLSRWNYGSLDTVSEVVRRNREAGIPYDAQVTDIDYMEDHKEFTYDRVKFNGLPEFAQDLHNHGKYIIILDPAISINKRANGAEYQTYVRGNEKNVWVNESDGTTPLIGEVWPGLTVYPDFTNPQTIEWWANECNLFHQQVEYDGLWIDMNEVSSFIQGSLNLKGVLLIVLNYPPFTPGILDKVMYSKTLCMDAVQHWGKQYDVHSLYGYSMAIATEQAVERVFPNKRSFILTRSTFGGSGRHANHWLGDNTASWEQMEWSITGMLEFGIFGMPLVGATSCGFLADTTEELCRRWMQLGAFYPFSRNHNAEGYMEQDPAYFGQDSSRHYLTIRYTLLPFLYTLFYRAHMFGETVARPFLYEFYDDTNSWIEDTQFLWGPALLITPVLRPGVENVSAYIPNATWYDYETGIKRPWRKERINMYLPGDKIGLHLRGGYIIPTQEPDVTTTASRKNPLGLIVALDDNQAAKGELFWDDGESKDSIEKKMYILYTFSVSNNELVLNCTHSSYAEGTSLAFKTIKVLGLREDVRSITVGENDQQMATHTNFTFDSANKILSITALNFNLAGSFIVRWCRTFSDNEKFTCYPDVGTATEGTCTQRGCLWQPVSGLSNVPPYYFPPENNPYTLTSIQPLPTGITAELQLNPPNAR
T2 sequence (P23739 1014-1841 limits assumed): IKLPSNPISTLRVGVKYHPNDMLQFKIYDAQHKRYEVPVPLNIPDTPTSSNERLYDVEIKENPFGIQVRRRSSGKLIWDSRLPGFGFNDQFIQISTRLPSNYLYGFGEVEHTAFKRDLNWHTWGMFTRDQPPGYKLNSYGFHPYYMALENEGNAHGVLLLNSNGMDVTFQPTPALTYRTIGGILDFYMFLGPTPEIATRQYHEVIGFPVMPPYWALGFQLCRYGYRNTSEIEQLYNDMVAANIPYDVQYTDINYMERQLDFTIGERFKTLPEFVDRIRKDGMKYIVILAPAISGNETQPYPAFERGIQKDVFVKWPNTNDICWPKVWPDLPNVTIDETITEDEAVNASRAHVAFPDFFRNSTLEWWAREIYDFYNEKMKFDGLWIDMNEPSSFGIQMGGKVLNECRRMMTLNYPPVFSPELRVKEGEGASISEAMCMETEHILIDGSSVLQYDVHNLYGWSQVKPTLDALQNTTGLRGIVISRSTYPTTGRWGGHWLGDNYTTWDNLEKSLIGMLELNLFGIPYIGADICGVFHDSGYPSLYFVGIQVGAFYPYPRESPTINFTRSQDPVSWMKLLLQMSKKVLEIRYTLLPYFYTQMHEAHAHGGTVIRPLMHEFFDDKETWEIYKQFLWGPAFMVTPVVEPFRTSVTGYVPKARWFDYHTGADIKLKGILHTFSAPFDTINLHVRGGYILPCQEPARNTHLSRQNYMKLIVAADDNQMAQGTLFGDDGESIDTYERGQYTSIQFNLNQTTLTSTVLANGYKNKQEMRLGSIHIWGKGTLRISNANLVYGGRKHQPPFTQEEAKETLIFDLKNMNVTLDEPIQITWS

[13] = target: T3, Tissue alpha-L-fucosidase (Bos taurus) (UniProt Q2KIM0); assay: Inhibition of bovine kidney alpha-L-fucosidase using p-nitrophenyl glycoside as substrate assessed as release of p-nitrophenol at 1000 uM measured by spectrometric assay relative to control; assay type: tissue-based
T3 sequence (whole entry): T1 sequence (Q2KIM0 whole entry)

[14] = target: Beta-glucuronidase (Escherichia coli (strain K12)) (UniProt P05804); assay: Inhibition of Escherichia coli beta-glucuronidase using p-nitrophenyl glycoside as substrate assessed as release of p-nitrophenol at 1000 uM measured by spectrometric assay relative to control
Chain of Beta-glucuronidase (Escherichia coli (strain K12)) (P05804 whole entry, looked up): as the sequence (P05804 whole entry) above

Sus scrofa = organism: Sus scrofa; assay: Inhibition of porcine kidney alpha-trehalase using p-nitrophenyl glycoside as substrate assessed as release of p-nitrophenol at 1000 uM measured by spectrometric assay relative to control
[15] = Inhibition of rice alpha-glucosidase using p-nitrophenyl glycoside as substrate assessed as release of p-nitrophenol measured by spectrometric assay; parameters: species or system Oryza sativa; conditions: read-out: IC50
[16] = Inhibition of rat intestinal maltase using maltose as substrate assessed as release of D-glucose measured by spectrometric assay
Bos taurus [17] = organism: Bos taurus; assay: Inhibition of bovine liver beta-glucosidase using p-nitrophenyl glycoside as substrate assessed as release of p-nitrophenol at 1000 uM measured by spectrometric assay relative to control; assay type: tissue-based
[18] = target: T2, Sucrase-isomaltase, intestinal; assay: Inhibition of rat intestinal sucrase using p-nitrophenyl glycoside as substrate assessed as release of p-nitrophenol measured by spectrometric assay; conditions: read-out: IC50
[19] = target: T4, Alpha-mannosidase (Canavalia ensiformis) (UniProt C0HJB3); assay: Inhibition of jack bean alpha-mannosidase using p-nitrophenyl glycoside as substrate assessed as release of p-nitrophenol at 1000 uM measured by spectrometric assay relative to control
T4 sequence (whole entry): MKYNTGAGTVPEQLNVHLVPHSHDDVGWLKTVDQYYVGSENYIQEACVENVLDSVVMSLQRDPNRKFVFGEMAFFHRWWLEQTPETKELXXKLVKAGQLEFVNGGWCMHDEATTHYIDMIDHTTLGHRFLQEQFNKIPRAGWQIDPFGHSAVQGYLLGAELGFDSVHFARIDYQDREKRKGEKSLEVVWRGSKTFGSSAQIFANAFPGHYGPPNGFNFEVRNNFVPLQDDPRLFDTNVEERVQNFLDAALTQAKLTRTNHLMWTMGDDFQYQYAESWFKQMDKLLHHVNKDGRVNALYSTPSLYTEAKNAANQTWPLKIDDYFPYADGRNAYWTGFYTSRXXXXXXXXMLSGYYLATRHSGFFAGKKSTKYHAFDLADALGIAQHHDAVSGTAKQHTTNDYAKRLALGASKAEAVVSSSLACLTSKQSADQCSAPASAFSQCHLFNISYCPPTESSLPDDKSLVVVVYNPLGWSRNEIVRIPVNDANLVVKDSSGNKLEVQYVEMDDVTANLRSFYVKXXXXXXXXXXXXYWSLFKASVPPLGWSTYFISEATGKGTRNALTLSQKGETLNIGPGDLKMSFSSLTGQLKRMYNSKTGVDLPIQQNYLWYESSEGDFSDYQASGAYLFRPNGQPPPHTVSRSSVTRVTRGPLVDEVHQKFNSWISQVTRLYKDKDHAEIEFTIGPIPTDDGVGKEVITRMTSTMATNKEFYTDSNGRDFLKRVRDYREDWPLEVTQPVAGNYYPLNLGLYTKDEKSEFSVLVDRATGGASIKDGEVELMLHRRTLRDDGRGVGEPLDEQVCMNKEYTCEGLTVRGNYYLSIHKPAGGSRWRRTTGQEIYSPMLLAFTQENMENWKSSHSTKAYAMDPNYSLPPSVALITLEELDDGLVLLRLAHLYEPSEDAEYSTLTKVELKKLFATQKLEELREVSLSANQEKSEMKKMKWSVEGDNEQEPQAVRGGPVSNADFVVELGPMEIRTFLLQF

Compound	inhibition (Penicillium decumbens)	inhibition [2]	IC50 [5]	IC50 [6]	IC50 [7]	IC50 [8]	inhibition (Aspergillus niger)	IC50 [9]	IC50 (Beta-glucuronidase)	inhibition (Prunus dulcis)	IC50 [10]	IC50 (Alpha-galactosidase)	IC50 [11]	inhibition (Helix pomatia)	IC50 ([12]; read-out: IC50)	inhibition [13]	IC50 [15]	IC50 [16]	IC50 [18]	inhibition [19]	further results
CCC[C@]1(CO)NC[C@H](O)[C@@H](O)[C@@H]1O.Cl	3.6%	11%	Not Active	Not Active	Not Active	Not Active	1.9%	Not Active	Not Active	5.7%	Not Active	Not Active	Not Active	1.5%	1.7 µM	9.9%	0.088 µM	0.096 µM	0.2 µM	7.9%	IC50 [1]: Not Active; inhibition (Bos taurus [3]): 15.7%; IC50 [4]: Not Active; inhibition [14]: 8.6%; inhibition (Sus scrofa): 4.3%; inhibition (Bos taurus [17]): 10.3%
CCCC[C@@]1(CO)NC[C@H](O)[C@@H](O)[C@@H]1O.Cl	22.8%	12.5%	Not Active	Not Active	Not Active	Not Active	3.8%	Not Active	Not Active	6.2%	Not Active	Not Active	Not Active	3%	–	16%	85 µM	110 µM	242 µM	4.4%	IC50 ([1]; read-out: IC50): 149 µM; IC50 ([4]; read-out: IC50): 52 µM; IC50 [12]: Not Active; inhibition (Sus scrofa): 0%
CCCCCCCCC[C@@]1(CO)NC[C@H](O)[C@@H](O)[C@@H]1O.Cl	3.5%	15.3%	Not Active	Not Active	Not Active	Not Active	2.7%	Not Active	Not Active	32.9%	Not Active	Not Active	Not Active	0.6%	122 µM	1.5%	3.3 µM	9.5 µM	42 µM	0%	IC50 ([1]; read-out: IC50): 213 µM; IC50 ([4]; read-out: IC50): 29 µM; inhibition [14]: 38.1%; inhibition (Sus scrofa): 0%
CC[C@]1(CO)NC[C@H](O)[C@@H](O)[C@@H]1O.Cl	0%	30.1%	Not Active	Not Active	Not Active	Not Active	0%	–	Not Active	5.6%	Not Active	Not Active	Not Active	1.1%	1.2 µM	2.1%	0.097 µM	0.11 µM	0.1 µM	1.6%	IC50 [1]: Not Active; inhibition (Bos taurus [3]): 18.4%; IC50 [4]: Not Active; IC50 ([9]; read-out: IC50): 94 µM; inhibition [14]: 3.6%; inhibition (Bos taurus [17]): 15.3%
